“Also recorded” adds a separate entry of the source.
Assays:
[1] = test system: wild-type mice; assay: Carotid artery in vivo thrombosis rates by vital microscopy, wild-type mice (Example 7, parts 6-7); settings: for in vivo thrombosis rates: diets +/- ABS or DMB for 3 weeks
Description: This example repeats the study immediately above, excepts uses wild-type mice. The results are shown FIG. 14.
Carotid artery in vivo thrombosis rates were determined using vital microscopy on the indicated groups of mice shown in FIG. 15. Mice were on the indicated diets +/− ABS or DMB for 3 weeks.

[2] = test system: gut flora; assay: Plasma TMA and TMAO in mice after 3 weeks on diets +/- ABS or DMB (Example 7, part 1); assay type: in vivo; settings: female mice, 3 weeks on diet, chow or 1.0% wt/wt choline
Description: Six week old female mice were placed on the indicated diets +/− shown in FIG. 9, including Chow, CHOW+antibiotics (ABS; which was 0.5 g/L vancomycin, 1 g/L neomycin sulfate, 1 g/L metronidazole, and 1 g/L ampicillin), TMAO, CH (chow supplemented with 1.0% wt/wt choline), CH and ABS, and CH+DMB. Mice were placed on these diets at 6 weeks of age and maintained on the diets for 3 weeks. Plasma was then recovered and both TMA and TMAO were determined by stable isotope dilution LC/MS/MS.

[3] = test system: intestinal microflora; assay: Intestinal microflora-catalyzed generation of trimethylamine from D9-choline in cecum homogenate (Example 6); assay type: biochemical, Mouse; settings: D9-choline substrate
Description: Experiments were conducted during development of embodiments of the present invention to examine the effect of DMB on intestinal microflora-catalyzed generation of trimethylamine from choline. Mouse celum was homogenized as a source of intestinal microflora. D9-choline was used as a substrate and the generation of […] was quantificed by stable isotope dilution LC/MS/MS.

[4] = test system: Peritoneal macrophages; assay: Cholesterol accumulation and foam cell formation in peritoneal macrophages, oil red O staining (Example 4); assay type: in vivo, C57BL/6J.Apoe−/− male mice; settings: 1.3% DMB added to 1.3% choline diet
Description: Experiments were conducted during development of embodiments of the present invention to examine the effect of addition of DMB on cholesterol accumulation and foam cell formation. C57BL/6J.Apoe−/− male mice at the time of weaning (4 weeks) were placed on chow diet supplemented with 1.3% choline, 1.3% DMB, both, or neither. Peritoneal macrophages were collected, fixed in 4% paraformaldehyde and stained with oil red 0/hematoxin.

[5] = test system: platelets; assay: Ex vivo platelet aggregation triggered by ADP, platelets from mice on diets (Example 7, parts 2-4); assay type: in vivo; settings: platelets from mice on high choline or TMAO diet +/- antibiotics or DMB
Description: (§1) In this example, mice were placed on either normal chow diet at time of weaning, or a high choline diet. After several weeks, whole blood was removed, and platelets isolated. The ability of a submaximal agonist of platelets, ADP, to trigger platelet aggregation was then determined. In parallel, plasma levels of TMAO were determined by established stable isotope dilution LC/MS/MS analyses. […] This is a clear signal of a pro-thrombotic phenotype in the mice on a high choline diet. In a similar study, the mice on the high choline were also placed on a cocktail of broad spectrum antibiotics (described above and in Wang et al., Nature 2011, April, 472(7341):57-63, incorporated by reference it its entirety for all purposes) to suppress intestinal microflora, and reduce plasma TMAO levels. […] Such drugs (e.g., DMB or antibiotics) are attractive since they should not induce excess bleeding (e.g., like commercial anti-thrombotic drugs like clopidogrel or Warfarin). That is, TMAO only accentuates platelet function, and reducing TMAO levels (like with DMB, antibiotic, or some other drug or approach, be it functional food, probiotic, or prebiotic) would decrease in vivo thrombosis, but not reduce below “normal” function, and thus not increase bleeding risk. […]

[6] = test system: endogenous foam cell formation; assay: Macrophage cholesterol content and plasma TMAO in mice on chow supplemented with choline, TMAO or DMB (Example 1); assay type: in vivo, C57BL/6J.Apoe−/− mice; settings: normal chow supplemented with choline, TMAO or DMB vs normal chow control
Description: Male C57BL/6J.Apoe−/− mice (15 week old) were placed on normal chow (control) alone or supplemented in the presence of either choline (1.0%), TMAO (0.12%), or DMB (1.0%). Peritoneal macrophages were recovered from the indicated number of mice at 20 weeks of age and cellular cholesterol content was quantified by stable isotope dilution GC/MS, and normalized to DNA content.
Experiments were conducted during development of embodiments of the present invention to examine the structural specificity of phaophatidylcholine metabolites in promoting a pro-atherogenic macrophage phenotype as monitored by endogenous foam cell formation. C57BL/6J.Apoe−/− mice at time of weaning were placed on either normal chow diet (control) or normal chow supplemented with either choline, TMAO or the choline analog DMB, where the quaternary amine nitrogen of choline is replaced with a carbon (SEE FIG. 2, right). Thus, DMB is structurally identical to choline except there is no C—N bond for potential cleavage and TMA formation by gut flora.

[7] = test system: gut flora; assay: Plasma TMAO by stable isotope dilution LC/MS/MS in the mice of the platelet aggregation study; assay type: in vivo; settings: high choline diet +/- antibiotics or DMB
Description: as §1

[8] = test system: C57BL/6J.Apoe−/− male mice; assay: Aortic root lesion plaque, oil red O staining (Example 2); assay type: in vivo
Text: C57BL/6J.Apoe−/− male mice at the time of weaning (4 weeks) were placed on chow diet supplemented with 1.3% choline, 1.3% DMB, both, or neither. Aortic root section was stained with oil red 0/hematoxin. The red oil staining area inside the aorta indicates lesion plaque (SEE FIGS. 3 and 4).

[9] = test system: peritoneal mouse macrophages; assay: Total cholesterol in peritoneal macrophages by stable isotope dilution LC/MS/MS (Example 5); assay type: in vivo, C57BL/6J.Apoe−/− male mice; settings: chow with 1.3% choline, 1.3% DMB, both or neither
Description: Experiments were conducted during development of embodiments of the present invention to determine the effect of DMB on total cholesterol level in peritoneal mouse macrophages (SEE FIG. 7). C57BL/6J.Apoe−/− male mice at the time of weaning (4 weeks) were placed on chow diet supplemented with 1.3% choline, 1.3% DMB, both, or neither. The total cholesterol of cells was quantified by stable isotope dilution LC/MS/MS. Cells number was quantified by protein content in cell lystates.

[10] = Plasma lipoprotein profile of mice on supplemented chow (Example 3); assay type: in vivo; settings: 1.3% DMB added to mouse diet
Description: Experiments were conducted during development of embodiments of the present invention to compare plasma levels of (1) cholesterol, (2) triglyceride, low density lipoprotein-cholesterol, and HDL cholesterol in mice fed chow, or chow supplemented with 1.3% choline, 1.3% DMB, or both (SEE FIG. 5).

[11] = test system: Atherosclerosis Prone ApoE−/− Mice; assay: Carotid artery in vivo thrombosis rates by vital microscopy, ApoE−/− mice (Example 7, part 5); settings: diets +/- ABS for 3 weeks
Description: In this example, carotid artery in vivo thrombosis rates were determined using vital microscopy on the indicated groups of mice in FIG. 13. Mice were on the indicated diets +/− ABS for 3 weeks.
These studies extend to in vivo studies what was seen before with ex vivo platelet aggregation studies from mice on the various indicated diets. […] A shorter time indicates faster platelet aggregation (enhanced in vivo thrombosis).

[12] = test system: proteus mirabilis; assay: TMA production from choline by proteus mirabilis (FIG. 24); assay type: cell-based

SMILES	in vivo thrombosis rates [1]	TMAO levels ([1]; high choline diet +/- ABS or DMB for 3 weeks)	plasma TMA [2]	plasma TMAO [2]	gut flora-mediated catabolism of choline to TMA [3]	cholesterol accumulation and foam cell formation [4]	platelet aggregation (response to ADP) [5]	macrophage cholesterol content [6]	plasma levels of TMAO [6]	plasma TMAO levels [7]	reduction of aortic plaque formation ([8]; 1.3% DMB added to normal chow diet, apoE−/− mice)	increases in atherosclerotic plaque induced by the high choline diet ([8]; addition to chow with 1.3% choline)	macrophage cholesterol content (total cholesterol of cells) [9]	plasma HDL cholesterol [10]	plasma low density lipoprotein-cholesterol [10]	plasma total cholesterol [10]	plasma triglyceride [10]	in vivo thrombosis rates (time to cessation of blood flow in the carotid artery) [11]	TMA production from choline [12]
CC(C)(C)CCO [DMB, 3,3-dimethyl-1-butanol]	block the reduction in in vivo thrombosis rates seen on a high choline diet	block TMAO levels	inhibits TMA and TMAO formation	inhibits TMA and TMAO formation	markedly inhibited	reversed the high choline diet induced cholesterol accumulation and foam cell formation	markedly reduces platelet hyperresponsiveness; also recorded: blocks platelet hyper-responsiveness (aggregation)	no increased accumulation of cholesterol in endogenous macrophages	no TMAO increase	inhibits TMAO formation	~90%	blocks the diet-induced enhanced artherosclerosis	blocked	increase in high density lipoproteins	significant reductions	significant reductions	significant reductions		
C[N+](C)(C)[O-] [TMAO, trimethylamine N-oxide, reference compound]	Enhances In Vivo Thrombosis Rates						promotes enhanced platelet aggregation	increased macrophage cholesterol content	elevated plasma levels of TMAO									promotes accelerated in vivo thrombosis rates	
C[Si](C)(C)CCO [trimethylsilylethanol, trimethylsilyl ethanol]																			serves as an inhibitor of TMA production from choline
